# Results reported in patent US5200506A, “Process for preparing new thymopentin retro-inverso analogs and fragments thereof and the intermediates obtained therein” (Eniricerche S.p.A., priority 1987, dated 1993).
# Where a SMILES comes first, the peptide text is derived from it.
# Columns and labels:
# in vitro = settings: human, heparinized human plasma
# [1] = test system: spleen cells of mice incubated with SRBC; assay: Plaque forming cells test; format: in vivo
# Protocol: As the in vivo test, the so-called "plaque forming cells" test described by N. Jerne (same reference as above), has been used. The test is carried out incubating spleen cells of mice who had received the test peptides, with SRBC and counting the number of plaques formed. In the actual practice, groups of 3 mice each, received about 1 ng/mouse of test peptide i.p. one hour after the antigen (SRBC) inoculation. Four days after this treatment, the spleen cells are removed and the test is immediately carried out.
# The "plaque forming cells" test has been repeated also by treating the test mice with TP5 or with the corresponding retro-inverso analog TP5-RI1-2, three days before antigen (SRBC) injection.
# immune response = settings: thymectomized mice, preliminary in vivo tests; L.Kisfaludy et al. 1983; cited from earlier work
# [2] = T.P.Tischio et al. 1979; cited from earlier work
# cord blood cells (CBC) = assay: Rosette E formation test with sheep red blood cells; format: cell-based, human; settings: overnight at 37° C.; for % formation of Rosette E: 5% CO2, blank 23; for % of live cells after incubation: 5% CO2, blank 100
# Excerpt: In particular, as the in vitro test, the Rosette E formation test has been performed both on peripheral blood […] (PBMC) and on cord blood cells (CBC). The CBC used give a percentage of Rosette E formation with sheep red blood cells (SRBC) of 20-40%. The test is based on the capability of human T cells of forming Rosette E with SRBC. The assay which has been carried out according to the metodology described by O.G.Bier at al. in Fundamentals of Immunology--Springer-Verlag (1981), consists in the incubation of CBC, with or without the test peptides, overnight at 37° C. in the presence of 5% CO2.
# [3] = mice, about 1 ng/mouse i.p. one hour after antigen (SRBC) inoculation, spleen cells four days later, blank 4.62
# [4] = mice, about 1 ng/mouse i.p. one hour after antigen (SRBC) inoculation, spleen cells four days later, blank 42.000
compound,measurement,setting,value
"CC(C)[C@H](NC(=O)[C@H](CC(=O)O)NC(=O)C(CCCCN)C(=O)N[C@@H](N)CCCNC(=N)N)C(=O)N[C@@H](Cc1ccc(O)cc1)C(=O)O (stereo partly drawn) [TP5-RI1-2, AcOH·H-gArg-(R,S)mLys-Asp-Val-Tyr--OH]",half-life,in vitro,32 min
"AcOH.multidot.H-gArg-(R,S)mLys-Asp--OH [TP5^(1-3) -RI1-2]",Log Number of plaques,[1]; [3],4.78
same,Number of plaques formed,[1]; [4],63.125
"N=C(N)NCCC[C@H](N)C(=O)N[C@@H](CCCCN)C(=O)N[C@@H](CC(=O)O)C(=O)O [TP5^(1-3), H-Arg-Lys-Asp-OH] (H-Arg-Lys-Asp-OH)",restoration of the immune response,immune response,able to restore the immune response in thymectomized mice
same,Log Number of plaques,[1]; [3],4.67
same,Number of plaques formed,[1]; [4],48.917
"CC(C)[C@H](NC(=O)[C@H](CC(=O)O)NC(=O)[C@H](CCCCN)NC(=O)[C@@H](N)CCCN=C(N)N)C(=O)N[C@@H](Cc1ccc(O)cc1)C(=O)O [TP5, H-Arg-Lys-Asp-Val-Tyr-OH] (H-RKDVY-OH)",half-life in serum,[2],approximately 1.5 minute
same,Log Number of plaques,"[1]; mice treated three days before antigen (SRBC) injection, blank 4.64",4.79
same,Number of plaques formed,"[1]; mice treated three days before antigen (SRBC) injection, blank 44.000",62.000
same,Log Number of plaques,[1]; [3],4.68
same,Number of plaques formed,[1]; [4],48.375
same,% formation of Rosette E,cord blood cells (CBC); 10 ng/ml,28%
same,% of live cells after incubation,cord blood cells (CBC); 10 ng/ml,65%
same,% formation of Rosette E,cord blood cells (CBC); 100 ng/ml,33%
same,% of live cells after incubation,cord blood cells (CBC); 100 ng/ml,65%
